Measurements taken from ChEMBL document CHEMBL1136535, “Unexpected inhibition of S-adenosyl-L-homocysteine hydrolase by a guanosine nucleoside” (Bioorg Med Chem Lett, 2003).

Biological target: Adenosylhomocysteinase (Homo sapiens) (UniProt P23526)
Assay: Enzyme catalytic rate kinetic constant for S-adenosyl-L-homocysteine hydrolase; Not a substrate

Chain of Adenosylhomocysteinase (Homo sapiens) (P23526 2-432 limits assumed): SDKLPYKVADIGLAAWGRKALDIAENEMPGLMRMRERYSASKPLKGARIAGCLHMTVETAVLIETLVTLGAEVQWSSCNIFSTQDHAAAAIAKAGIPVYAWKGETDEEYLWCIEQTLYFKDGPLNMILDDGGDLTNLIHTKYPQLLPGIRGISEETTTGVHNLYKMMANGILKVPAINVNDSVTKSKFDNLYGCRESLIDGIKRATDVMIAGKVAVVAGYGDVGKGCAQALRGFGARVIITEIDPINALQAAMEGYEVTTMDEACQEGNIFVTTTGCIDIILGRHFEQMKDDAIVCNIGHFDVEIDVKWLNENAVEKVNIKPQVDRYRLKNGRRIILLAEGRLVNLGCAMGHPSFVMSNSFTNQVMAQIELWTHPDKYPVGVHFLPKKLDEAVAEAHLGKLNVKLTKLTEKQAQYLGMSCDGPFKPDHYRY

- k cat: Not a substrate
Structure (SMILES): Nc1nc(O)cc(-c2cncn2C2O[C@H](CO)[C@@H](O)[C@H]2O)n1 (stereo partly specified)
